Square brackets hold non-standard residues; d marks the D form. Peptide text beside a SMILES is read from it. pT = C[C@@H](OP(=O)(O)O)[C@H](N)C(=O)O; pS = N[C@@H](COP(=O)(O)O)C(=O)O
Tests used:
Format in all cases: binding
[1] = biological target: T1, wild-type aprataxin FHA domain (Homo sapiens, UniProt Q7Z2E3); assay: ITC of wild-type aprataxin FHA domain with XRCC1 and XRCC4 phosphopeptides; conditions: 22 °C, 50 mM HEPES pH 7.5, 150 mM NaCl, 5 mM β-mercaptoethanol, peptide in syringe, XRCC1 peptides 1 mM into 100 μM protein, XRCC4 peptides 300 μM into 30 μM protein, single-site model, representative of triplicate
T1 construct: aprataxin residues 1–105; GST (pGEX-6P-1) (N, cleaved yes); made in house; host or cells: Escherichia coli BL21 (DE3)
T1 sequence (Q7Z2E3 15-119): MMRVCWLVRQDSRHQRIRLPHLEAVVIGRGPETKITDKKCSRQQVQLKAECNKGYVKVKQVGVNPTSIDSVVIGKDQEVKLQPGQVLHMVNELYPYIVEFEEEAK
Text: (§1) The genes for aprataxin residues 1–105 and APLF residues 1–106 were amplified using primer sets which incorporated 5′ BamHI and 3′ XhoI sites. PCR products and pGEX-6P-1 vector were digested with BamHI and XhoI and religated. All point mutations were generated using a QuickChange Site-Directed Mutagenesis Kit (Stratagene) following the manufacturer's recommended protocol.
(§2) For expression, the pGEX-6P-1/aprataxin-FHA constructs were transformed into Escherichia coli strain BL21 (DE3) and the pGEX-6P-1/APLF-FHA constructs transformed into the strain Rosetta2 (DE3). Cells were grown in LB at 37 °C to an A600 of 0.5, induced with 0.4 mM isopropyl 1-thio-β-D-galactopyranoside and incubated at 18 °C for a further 16 h before harvesting. Cells were lysed by sonication and clarified by centrifugation (20,000 × g × 30 min). The supernatant was applied to a glutathione-4B resin (Amersham) and cleaved from the resin with rhinovirus 3C protease. Proteins were purified further by gel-filtration chromatography on a Superdex 75 matrix in 20 mM Tris pH 7.5, 150 mM NaCl, 5 mM DTT. Selenomethionine-labelled APLF L91 M protein was expressed in Rosetta2 (DE3) cells cultured in SelenoMet base media and nutrients supplemented with seleno-methionine solution (Molecular Dimensions Ltd.) and purified as the wild-type protein.
(§3) Phosphopeptides based on the XRCC1 sequence 515-YAGSTDENTDSEEHQ-529 and the XRCC4 sequence 229-YDESTDEES-237 were synthesised with amidated C-termini to avoid potential end-effects of a free carboxy-terminus by Dr. W. Mawby (University of Bristol), purified by HPLC and characterised by mass spectrometry. FHA-phosphopeptide binding was quantified by isothermal titration calorimetry using a Microcal Omega VP-ITC calorimeter (MicroCal Inc., Northampton, MA). Protein was dialysed against ITC buffer (50 mM HEPES pH 7.5, 150 mM NaCl, 5 mM β-mercaptoethanol) and peptides were dissolved in the dialysis buffer. Experiments were carried out at 22 °C and involved 30 successive 10 μl injections of peptide solution into a sample cell containing protein solution. Titrations with XRCC1 peptides used peptide at 1 mM and protein at 100 μM and titrations with XRCC4 peptides used peptide at 300 μm and protein at 30 μM. Heats of dilution were subtracted and binding isotherms were plotted and analysed with MicroCal origin version 7.0, assuming a single-site binding model.

[2] = biological target: T2, wild-type APLF FHA domain (Homo sapiens, UniProt Q8IW19); assay: ITC of wild-type APLF FHA domain with XRCC1 and XRCC4 phosphopeptides; conditions: 22 °C, 50 mM HEPES pH 7.5, 150 mM NaCl, 5 mM β-mercaptoethanol, peptide in syringe, XRCC1 peptides 1 mM into 100 μM protein, XRCC4 peptides 300 μM into 30 μM protein, single-site model, representative of triplicate
T2 construct: APLF residues 1–106; GST (pGEX-6P-1) (N, cleaved yes); made in house; host or cells: Escherichia coli Rosetta2 (DE3)
T2 sequence (Q8IW19 1-106): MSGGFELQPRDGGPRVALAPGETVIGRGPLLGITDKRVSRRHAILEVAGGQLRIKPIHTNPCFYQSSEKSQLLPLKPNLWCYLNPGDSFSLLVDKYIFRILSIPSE
Text: as §1
For expression, the pGEX-6P-1/aprataxin-FHA constructs were transformed into Escherichia coli strain BL21 (DE3) and the pGEX-6P-1/APLF-FHA constructs transformed into the strain Rosetta2 (DE3). Cells were grown in LB at 37 °C to an A600 of 0.5, induced with 0.4 mM isopropyl 1-thio-β-D-galactopyranoside and incubated at 18 °C for a further 16 h before harvesting. […]
Phosphopeptides based on the XRCC1 sequence 515-YAGSTDENTDSEEHQ-529 and the XRCC4 sequence 229-YDESTDEES-237 were synthesised with amidated C-termini to avoid potential end-effects of a free carboxy-terminus by Dr. W. Mawby (University of Bristol), purified by HPLC and characterised by mass spectrometry. FHA-phosphopeptide binding was quantified by isothermal titration calorimetry using a Microcal Omega VP-ITC calorimeter (MicroCal Inc., Northampton, MA). […] Heats of dilution were subtracted and binding isotherms were plotted and analysed with MicroCal origin version 7.0, assuming a single-site binding model.

[3] = biological target: T3, R42A Mutant of aprataxin FHA domain (Homo sapiens, UniProt Q7Z2E3, R56A); assay: ITC of R42A mutant of aprataxin FHA domain with XRCC1 and XRCC4 phosphopeptides; conditions: 22 °C, 50 mM HEPES pH 7.5, 150 mM NaCl, 5 mM β-mercaptoethanol, single-site model
T3 construct: aprataxin residues 1–105; GST (pGEX-6P-1) (N, cleaved yes); made in house; host or cells: Escherichia coli BL21 (DE3)
T3 sequence (Q7Z2E3 15-119 R56A): as the sequence (Q7Z2E3 15-119) above, with R42A counted along it
Text: as §1, §2, §3

[4] = biological target: T4, K38A Mutant of aprataxin FHA domain (Homo sapiens, UniProt Q7Z2E3, K52A); assay: ITC of K38A mutant of aprataxin FHA domain with XRCC1 and XRCC4 phosphopeptides; conditions: 22 °C, 50 mM HEPES pH 7.5, 150 mM NaCl, 5 mM β-mercaptoethanol, single-site model
T4 construct: aprataxin residues 1–105; GST (pGEX-6P-1) (N, cleaved yes); made in house; host or cells: Escherichia coli BL21 (DE3)
T4 sequence (Q7Z2E3 15-119 K52A): as the sequence (Q7Z2E3 15-119) above, with K38A counted along it
Text: as §1, §2, §3

## C[C@H](NC(=O)[C@@H](N)Cc1ccc(O)cc1)C(=O)NCC(=O)N[C@@H](COP(=O)(O)O)C(=O)N[C@H](C(=O)N[C@@H](CC(=O)O)C(=O)N[C@@H](CCC(=O)O)C(=O)N[C@@H](CC(N)=O)C(=O)N[C@H](C(=O)N[C@@H](CC(=O)O)C(=O)N[C@@H](COP(=O)(O)O)C(=O)N[C@@H](CCC(=O)O)C(=O)N[C@@H](CCC(=O)O)C(=O)N[C@@H](Cc1c[nH]cn1)C(=O)N[C@@H](CCC(N)=O)C(N)=O)[C@@H](C)OP(=O)(O)O)[C@@H](C)OP(=O)(O)O [YAGpSpTDENpTDpSEEHQ] (H-YAG[pS][pT]DEN[pT]D[pS]EEHQ-NH2)
[1]
  Kd: 870 ± 50 nM
[2]
  Kd: 11000 ± 300 nM

## C[C@@H](OP(=O)(O)O)[C@H](NC(=O)[C@H](CO)NC(=O)[C@H](CCC(=O)O)NC(=O)[C@H](CC(=O)O)NC(=O)[C@@H](N)Cc1ccc(O)cc1)C(=O)N[C@@H](CC(=O)O)C(=O)N[C@@H](CCC(=O)O)C(=O)N[C@@H](CCC(=O)O)C(=O)N[C@@H](CO)C(N)=O [YDESpTDEES] (HELM PEPTIDE1{Y.D.E.S.[C[C@@H](OP(=O)(O)O)[C@H](N[*:1])C(=O)[*:2]].D.E.E.S.[am]}$$$$V2.0)
[3]
  Kd: ≥ 100000 nM
[4]
  Kd: 6800 ± 500 nM
[1]
  Kd: 2100 ± 80 nM

## C[C@@H](OP(=O)(O)O)[C@H](NC(=O)[C@H](COP(=O)(O)O)NC(=O)[C@H](CCC(=O)O)NC(=O)[C@H](CC(=O)O)NC(=O)[C@@H](N)Cc1ccc(O)cc1)C(=O)N[C@@H](CC(=O)O)C(=O)N[C@@H](CCC(=O)O)C(=O)N[C@@H](CCC(=O)O)C(=O)N[C@@H](CO)C(N)=O [YDEpSpTDEES] (HELM PEPTIDE1{Y.D.E.[O=C([C@H](COP(=O)(O)O)N[*:1])[*:2]].[C[C@@H](OP(=O)(O)O)[C@H](N[*:1])C(=O)[*:2]].D.E.E.S.[am]}$$$$V2.0)
[3]
  Kd: ≥ 100000 nM
[4]
  Kd: 1900 ± 60 nM
[1]
  Kd: 250 ± 20 nM

## C[C@@H](OP(=O)(O)O)[C@H](NC(=O)[C@H](COP(=O)(O)O)NC(=O)[C@H](CCC(=O)O)NC(=O)[C@H](CC(=O)O)NC(=O)[C@@H](N)Cc1ccc(O)cc1)C(=O)N[C@@H](CC(=O)O)C(=O)N[C@@H](CCC(=O)O)C(=O)N[C@@H](CCC(=O)O)C(=O)N[C@@H](COP(=O)(O)O)C(N)=O [YDEpSpTDEEpS] (H-YDE[pS][pT]DEE[pS]-NH2)
[3]
  Kd: ≥ 100000 nM
[4]
  Kd: 1300 ± 50 nM
[1]
  Kd: 140 ± 10 nM
